Assay results taken from patent publication US10829778B2, “Plants having increased tolerance to herbicides” (BASF SE, priority 2013, dated 2020).

How the values were obtained:
Kordia HPPD = assay: HPPD activity assay, wildtype enzyme; assay type: biochemical; conditions: Table 12, normalized to Arabidopsis HPPD
Experimental: (§1) HPPD produces homogentisic acid and CO2 from 4-hydroxyphenylpyruvate (4-HPP) and O2. The activity assay for HPPD is based on the analysis of homogentisic acid by reversed phase HPLC.
(§2) The assay mixture can contain 150 mM potassium phosphate buffer pH 7.0, 50 mM L-ascorbic acid, 100 μM Catalase (Sigma-Aldrich), 1 μM FeSO4 and 0.2 units of purified HPPD enzyme in a total volume of 505 μl. 1 unit is defined as the amount of enzyme that is required to produce 1 nmol of HGA per minute at 20° C.
(§3) After a preincubation of 30 min the reaction is started by adding 4-HPP to a final concentration of 0.05 mM. The reaction is allowed to proceed for 45 min at room temperature. The reaction is stopped by the addition of 50 μl of 4.5 M phosphoric acid. The sample is filtered using a […] pore size PVDF filtration device.
(§4) 5 μl of the cleared sample is analyzed on an UPLC HSS T3 column (particle size 1.8 μm, dimensions 2.1×50 mm; Waters) by isocratic elution using 90% 20 mM NaH2PO4 pH 2.2, 10% methanol (v/v).
(§5) HGA is detected electrochemically at 750 mV (mode: DC; polarity: positive) and quantified by integrating peak areas (Empower software; Waters).
(§6) Inhibitors are dissolved in DMSO (dimethylsulfoxide) to a concentration of 0.5 mM. From this stock solution serial five-fold dilutions are prepared in DMSO, which are used in the assay. The respective inhibitor solution accounts for 1% of the assay volume. Thus, final inhibitor concentrations range from 5 μM to 320 μM, respectively. Activities are normalized by setting the uninhibited enzyme activity to 100%. IC50 values are calculated using non-linear regression.
(§7) Using methods which are described in the above examples or well known in the art, purified, recombinant wildtype HPPD enzymes are characterized with respect to their kinetic properties and sensitivity towards HPPD inhibiting herbicides. Apparent michaelis constants (Km) and maximal reaction velocities (Vmax) are calculated by non-linear regression with the software GraphPad Prism 5 (GraphPad Software, La Jolla, USA) using a substrate inhibition model. Apparent kcat values are calculated from Vmax assuming 100% purity of the enzyme preparation. Weighted means (by standard error) of Km and IC50 values are calculated from at least three independent experiments. The Cheng-Prusoff equation for competitive inhibition (Cheng, Y. C.; Prusoff, W. H. Biochem Pharmacol 1973, 22, 3099-3108) is used to calculate dissociation constants (Ki).
(§8) Field performance of the HPPD enzyme, which is used as a herbicide tolerance trait may depend not only on its lack of sensitivity towards HPPD inhibiting herbicides but also on its activity. To assess the potential performance of a herbicide tolerance trait a tolerance index (TI) is calculated using the following formula: […]

Lolium HPPD = assay: HPPD activity assay, wildtype enzyme; assay type: biochemical; conditions: Table 12, normalized to Arabidopsis HPPD
Experimental: as §1, §2, §3, §4, §5, §6, §7, §8

[1] = system: Rhodococcus HPPD (Seq ID 44); assay: HPPD activity assay, wildtype enzyme; assay type: biochemical; conditions: Table 12, normalized to Arabidopsis HPPD; Rhodococcus (Seq ID 44)
Experimental: as §1, §2, §3, §4, §5, §6, §7, §8

[2] = system: Rhodococcus HPPD (Seq ID 46); assay: HPPD activity assay, wildtype enzyme; assay type: biochemical; conditions: Table 12, normalized to Arabidopsis HPPD; Rhodococcus (Seq ID 46)
Experimental: as §1, §2, §3, §4, §5, §6, §7, §8

Chlamydomonas HPPD1a = assay: HPPD activity assay, wildtype enzyme; assay type: biochemical, Chlamydomonas reinhardtii; conditions: Table 12, normalized to Arabidopsis HPPD
Experimental: as §1, §2, §3, §4, §5
Inhibitors are dissolved in DMSO (dimethylsulfoxide) to a concentration of 0.5 mM. From this stock solution serial five-fold dilutions are prepared in DMSO, which are used in the assay. […] IC50 values are calculated using non-linear regression. […]

[3] = biological target: T1, Arabidopsis HPPD (SEQ ID: 53) F381L (Arabidopsis thaliana, UniProt P93836, F381L); assay: HPPD activity assay, mutant enzyme; assay type: biochemical; conditions: Table 15, normalized to Arabidopsis wild-type
T1 construct: PCR-based site directed mutagenesis of pEXP5-NT/TOPO®-AtHPPD; His6 (N); made in house; host or cells: E. coli BL21 (DE3)
Experimental: as §1, §2, §3, §4, §5
as §6, with “Thus, final inhibitor concentrations range from 5 μM to 320 μM, respectively.” left out
(§9) Purified, mutant HPPD enzymes are obtained by the methods described above. Dose response and kinetic measurements are carried out using the described HPPD activity assay. Apparent michaelis constants (Km) and maximal reaction velocities (Vmax) are calculated by non-linear regression with the software GraphPad Prism 5 (GraphPad Software, La Jolla, USA) using a substrate inhibition model. […] Weighted means (by standard error) of Km and IC50 values are calculated from at least three independent experiments.
as §8, with “of the optimized HPPD enzyme,” for “of the HPPD enzyme,”
(§10) Easy comparison and ranking of each trait is enabled by normalizing tolerance indexes on Arabidopsis or Hordeum wild-type HPPD.

[4] = biological target: T2, Arabidopsis HPPD (SEQ ID: 53) M335H, P336A (Arabidopsis thaliana, UniProt P93836, M335H/P336A); assay: HPPD activity assay, mutant enzyme; assay type: biochemical; conditions: Table 15, normalized to Arabidopsis wild-type
T2 construct: PCR-based site directed mutagenesis of pEXP5-NT/TOPO®-AtHPPD; His6 (N); made in house; host or cells: E. coli BL21 (DE3)
Experimental: as §1, §2, §3, §4, §5
as §6, with “Thus, final inhibitor concentrations range from 5 μM to 320 μM, respectively.” left out
as §9
as §8, with “of the optimized HPPD enzyme,” for “of the HPPD enzyme,”
as §10

[5] = biological target: T3, Arabidopsis HPPD (SEQ ID: 53) M335H, P336G (Arabidopsis thaliana, UniProt P93836, M335H/P336G); assay: HPPD activity assay, mutant enzyme; assay type: biochemical; conditions: Table 15, normalized to Arabidopsis wild-type
T3 construct: PCR-based site directed mutagenesis of pEXP5-NT/TOPO®-AtHPPD; His6 (N); made in house; host or cells: E. coli BL21 (DE3)
Experimental: as §1, §2, §3, §4, §5
as §6, with “Thus, final inhibitor concentrations range from 5 μM to 320 μM, respectively.” left out
as §9
as §8, with “of the optimized HPPD enzyme,” for “of the HPPD enzyme,”
as §10

[6] = biological target: T4, Hordeum HPPD (SEQ ID: 2) F404L (Hordeum vulgare, UniProt O48604, A164G/F404L/R146V/R147D/R148G); assay: HPPD activity assay, mutant enzyme; assay type: biochemical; conditions: Table 16, normalized to Hordeum wild-type
T4 construct: His tag (N); made in house; host or cells: E. coli BL21 (DE3)
Experimental: as §1, §2, §3, §4, §5
as §6, with “Thus, final inhibitor concentrations range from 5 μM to 320 μM, respectively.” left out
as §9
as §8, with “of the optimized HPPD enzyme,” for “of the HPPD enzyme,”
as §10

[7] = biological target: T5, Hordeum HPPD (SEQ ID: 2) I416V (Hordeum vulgare, UniProt O48604, A164G/I416V/R146V/R147D/R148G); assay: HPPD activity assay, mutant enzyme; assay type: biochemical; conditions: Table 16, normalized to Hordeum wild-type
T5 construct: His tag (N); made in house; host or cells: E. coli BL21 (DE3)
Experimental: as §1, §2, §3, §4, §5
as §6, with “Thus, final inhibitor concentrations range from 5 μM to 320 μM, respectively.” left out
as §9
as §8, with “of the optimized HPPD enzyme,” for “of the HPPD enzyme,”
as §10

[8] = biological target: T6, Hordeum HPPD (SEQ ID: 2) R309K (Hordeum vulgare, UniProt O48604, A164G/R146V/R147D/R148G/R309K); assay: HPPD activity assay, mutant enzyme; assay type: biochemical; conditions: Table 16, normalized to Hordeum wild-type
T6 construct: His tag (N); made in house; host or cells: E. coli BL21 (DE3)
Experimental: as §1, §2, §3, §4, §5
as §6, with “Thus, final inhibitor concentrations range from 5 μM to 320 μM, respectively.” left out
as §9
as §8, with “of the optimized HPPD enzyme,” for “of the HPPD enzyme,”
as §10

HvHPPD L320H (SEQ ID: 2) = biological target: T7, HvHPPD L320H (SEQ ID: 2) (Hordeum vulgare, UniProt O48604, A164G/L320H/R146V/R147D/R148G); assay: HPPD activity assay, mutant enzyme; assay type: biochemical; conditions: Table 16, normalized to Hordeum wild-type
T7 construct: His tag (N); made in house; host or cells: E. coli BL21 (DE3)
Experimental: as §1, §2, §3, §4, §5
as §6, with “Thus, final inhibitor concentrations range from 5 μM to 320 μM, respectively.” left out
as §9
as §8, with “of the optimized HPPD enzyme,” for “of the HPPD enzyme,”
as §10

[9] = biological target: T8, HvHPPD L320H, P321A (SEQ ID: 2) (Hordeum vulgare, UniProt O48604, L320H/P321A); assay: HPPD activity assay, mutant enzyme; assay type: biochemical; conditions: Table 16, normalized to Hordeum wild-type
T8 construct: His tag (N); made in house; host or cells: E. coli BL21 (DE3)
Experimental: as §1, §2, §3, §4, §5
as §6, with “Thus, final inhibitor concentrations range from 5 μM to 320 μM, respectively.” left out
as §9
as §8, with “of the optimized HPPD enzyme,” for “of the HPPD enzyme,”
as §10

T2 sequence (P93836 whole entry M335H/P336A): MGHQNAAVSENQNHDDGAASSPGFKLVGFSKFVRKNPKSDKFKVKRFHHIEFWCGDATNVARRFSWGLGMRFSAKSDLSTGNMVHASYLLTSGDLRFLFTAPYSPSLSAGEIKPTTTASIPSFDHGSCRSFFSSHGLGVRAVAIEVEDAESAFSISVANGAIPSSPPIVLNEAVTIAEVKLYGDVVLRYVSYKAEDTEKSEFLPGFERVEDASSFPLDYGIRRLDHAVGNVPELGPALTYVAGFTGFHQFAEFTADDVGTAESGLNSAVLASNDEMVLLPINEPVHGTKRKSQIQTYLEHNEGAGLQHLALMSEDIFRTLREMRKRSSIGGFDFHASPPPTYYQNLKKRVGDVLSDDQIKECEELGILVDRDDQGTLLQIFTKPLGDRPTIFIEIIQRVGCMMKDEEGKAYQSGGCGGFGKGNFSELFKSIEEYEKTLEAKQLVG
T4 sequence (O48604 whole entry R146V/R147D/R148G/A164G/F404L): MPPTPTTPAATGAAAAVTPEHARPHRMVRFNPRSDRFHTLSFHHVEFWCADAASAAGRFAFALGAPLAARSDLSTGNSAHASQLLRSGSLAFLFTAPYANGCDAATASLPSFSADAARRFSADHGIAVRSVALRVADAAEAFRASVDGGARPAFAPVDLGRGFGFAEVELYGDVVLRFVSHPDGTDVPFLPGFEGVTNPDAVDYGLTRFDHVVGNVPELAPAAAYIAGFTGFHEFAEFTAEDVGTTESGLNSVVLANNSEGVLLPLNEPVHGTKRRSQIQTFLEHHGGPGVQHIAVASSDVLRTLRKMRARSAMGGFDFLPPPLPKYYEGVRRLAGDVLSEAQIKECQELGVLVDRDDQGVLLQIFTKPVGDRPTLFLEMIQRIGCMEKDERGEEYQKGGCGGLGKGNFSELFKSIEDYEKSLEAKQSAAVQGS
T6 sequence (O48604 whole entry R146V/R147D/R148G/A164G/R309K): as the sequence (O48604 whole entry R146V/R147D/R148G/A164G/F404L) above, with R309K, L404F counted along it
T7 sequence (O48604 whole entry R146V/R147D/R148G/A164G/L320H): as the sequence (O48604 whole entry R146V/R147D/R148G/A164G/F404L) above, with L320H, L404F counted along it
T5 sequence (O48604 whole entry R146V/R147D/R148G/A164G/I416V): as the sequence (O48604 whole entry R146V/R147D/R148G/A164G/F404L) above, with L404F, I416V counted along it
T3 sequence (P93836 whole entry M335H/P336G): as the sequence (P93836 whole entry M335H/P336A) above, with A336G counted along it
T1 sequence (P93836 whole entry F381L): as the sequence (P93836 whole entry M335H/P336A) above, with H335M, A336P, F381L counted along it
T8 sequence (O48604 whole entry R146V/R147D/R148G/A164G/L320H/P321A): as the sequence (O48604 whole entry R146V/R147D/R148G/A164G/F404L) above, with L320H, P321A, L404F counted along it

Cc1nonc1NC(=O)c1ccc(S(C)(=O)=O)c(S(C)(=O)=O)c1C [Inhibitor 1, 2-methyl-N-(4-methyl-1,2,5-oxadiazol-3-yl)-3,4-bis(methylsulfonyl)benzamide] was tested, and the “Normalized tolerance index TI Inhibitor 1” value (Kordia HPPD) was 3.5, the “Normalized tolerance index TI Inhibitor 1” value (Lolium HPPD) was 1.7 and the “Normalized tolerance index TI Inhibitor 1” value [1] was 183.5. For the same compound, the “Normalized tolerance index TI Inhibitor 1” value [2] was 12.4, the “Normalized tolerance index TI Inhibitor 1” value (Chlamydomonas HPPD1a) was 1.7 and the “Normalized tolerance index TI Inhibitor 1” value [3] was 35.2. The “Normalized tolerance index TI Inhibitor 1” value [4] was 2.4, the “Normalized tolerance index TI Inhibitor 1” value [5] was 3.6 and the “Normalized tolerance index TI Inhibitor 1” value [6] was 4.6. For the same compound, the “Normalized tolerance index TI Inhibitor 1” value [7] was 1.7, the “Normalized tolerance index TI Inhibitor 1” value [8] was 1.6 and the “Normalized tolerance index TI Inhibitor 1” value (HvHPPD L320H (SEQ ID: 2)) was 4.4. For the same compound, the “Normalized tolerance index TI Inhibitor 1” value [9] was 5.3.
